Laboratory results taken from patent US20100135992A1, “Prolongation of Survival of an Allograft by Inhibiting Complement Activity” (Alexion Pharmaceuticals, Inc., priority 2006, published 2010).

Legend:
[1] = system: C3H heart allografts in presensitized BALB/c recipients; test: C3H heart allograft survival and histology in skin-presensitized BALB/c recipients (Examples 1-2); type: in vivo, mouse; conditions: FIG. 2A
From the text: Rejection was defined as complete necrosis of the skin grafts.
Specimens were then embedded in paraffin, and sectioned for H&E staining. The microscopic sections were examined in a blinded fashion for severity of rejection by a pathologist. Criteria for graft rejection included the presence of vasculitis, thrombosis, hemorrhage and lymphocyte infiltration. These changes were scored as: 0, no change; 1, minimum change; 2, mild change; 3, moderate change; or 4, marked change.

[2] = system: C3H heart allografts in presensitized BALB/c recipients; test: Immunoperoxidase staining of heart allografts in presensitized mouse recipients at necropsy; type: in vivo; set-up: key: 0, negative; 1+, equivocal; 2+, weak; 3+, moderate; 4+, intense; conditions: heart allograft, POD 3
From the text: Immunohistochemistry Four micrometer sections were cut from tissue samples embedded in Tissue-Tek O.C.T gel (Optimum Cutting Temperature, Skura Finetek, Torrance, Calif.) mounted on gelatin-coated glass microscope slides and stained by a standard indirect avidin-biotin immunoperoxidase staining method using an Elite Vcctastain ABC kit (Vector Laboratories Inc., Burlingame, Calif.). Specimens were stained for CD4^+ and CD8^+ cells with biotin-conjugated rat anti-mouse CD4 mAb (clone YTS 191.1.2, Cedarlane Laboratories Ltd., Hornby, Ontario, Canada) and biotin-conjugated rat anti-mouse CD8 mAb (clone 53-6.7, Pharmingen, Franklin Lakes, N.J.), respectively. Intragraft monocyte/macrophage infiltration was detected by staining with biotin-conjugated rat anti-mouse Mac-1 mAb (Cedarlane Laboratories Ltd., Hornby, Ontario, Canada). Mouse IgG and IgM deposition in gratis was detected using biotin-conjugated goat anti-mouse-IgG and goat anti-mouse-IgM (Cedarlane). For identification of complement deposition, sections were serially incubated with goat anti-C3 or anti-C5 polyclonal Abs (Quidel, San Diego, Calif.), biotinylated rabbit anti-goat IgG (Vector Laboratories), and HRP-conjugated-streptavidin (Zymed Laboratories, South San Francisco, Calif.). Slides were washed with phosphate-buffered saline between steps, and examined under light microscopy. Negative controls were performed by omitting the primary antibodies. The immunostaining was scored in five high-power fields of each section, and five independent experiments were performed. The sections of immunoperoxidase staining were graded from 0 to 4+ according to the staining intensity: 0, negative; 1+, equivocal; 2+, weak staining; 3+, moderate staining; and 4+, very intensive staining.

[3] = system: circulating anti-donor IgG and IgM antibodies; test: Flow cytometry of circulating anti-donor antibodies (heart model); type: in vivo, mouse; conditions: POD3, presensitized heart recipients, FIG. 4A
Description: Flow Cytometry The circulating anti-donor specific IgG and IgM antibodies were evaluated in the recipient serum by FACScan flow cytometry (Becton Dickinson, Mountain View, Calif.). Glotz et al., (1993); Tyan et al. (1994). Briefly, C3H mouse splenocytes were isolated and incubated at 37° C. for 30 minutes with serum from naive control and experimental groups. To stain for total IgG, IgG1, IgG2a, IgG2b and IgM, the cells were washed and incubated with FITC-conjugated goat antibody specific for the Fc portion of mouse IgG or with phycoerythrin-conjugated goat antibody specific for the μ-chain of mouse IgM (Jackson ImmunoResearch Laboratories, West Grove, Pa.), or with FITC-conjugated goat anti-mouse IgG1 (CALTAG Laboratories, Burlingame, Calif.), or with FITC-conjugated goat anti-mouse IgG2a (CALTAG), or with FITC-conjugated goat anti-mouse IgG2b (CALTAG). After 1 hour of staining at 4° C., the cells were washed with PBS, resuspended at 5×10^6/mL, and analyzed by flow cytometry for mean channel fluorescence intensity, which represents the antibody-binding reactivity.

[4] = system: C3H heart allografts in presensitized BALB/c mice; test: Heart allograft survival, accelerated rejection in presensitized model (Example 4); type: in vivo, mouse; conditions: presensitized recipients
From the text: In these experiments, the presensitization was brought about by prior transplantation of a skin graft. In general, presensitization can occur not only as a result of having received an earlier allograft, but can also be caused by having received multiple blood transfusions or in women who have been pregnant. Besides such presensitization methods, allografts with an ABO mismatch will be rapidly attacked and rejected because of preformed antibodies to the ABO antigens unless steps are taken to prevent such an attack.
(§1) This model is designed to mimic presensitized transplantation in humans, especially in relation to accelerated humoral rejection. Recipient mice were split into eight groups of six to eight mice each. The treatments were as follow.
Group 3″ (BB5.1 alone)—mice were administered the anti-mouse complement monoclonal antibody BB5.1 at a dose of 40 mg/kg body weight delivered intraperitoneally on a daily basis beginning at day −1 and continuing until the endpoint.
Group 4″ (cyclophosphamide alone)—mice were administered cyclophosphamide intravenously at a dose of 40 mg/kg body weight on each of days 0 and 1.
Group 6″ (BB5.1 plus cyclophosphamide)—mice were administered BB5.1 intraperitoneally at a dose of 40 mg/kg body weight on a daily basis beginning at day −1 and continuing until the endpoint. […]

[5] = system: C3H heart allografts in presensitized BALB/c mice; test: Histological changes of heart allografts at necropsy (Example 4); type: in vivo, mouse; conditions: endpoint, score 0 normal to 4 marked change
From the text: as §1

[6] = system: C3H kidney allografts in presensitized BALB/c recipients; conditions: kidney allograft model development
From the text: Animals Male adult C3H (H-2^k) mice and BALB/c (H-2^d mice (Jackson Labs, Bar Harbor, Me.) weighing 25-30 g were chosen as donors and recipients, respectively. Animals were housed under conventional conditions at the Animal Care Facility, The University of Western Ontario, and were cared for in accordance with the guidelines established by the Canadian Council on Animal Care.
Skin Presensitization Full-thickness skin grafts taken from C3H donors were cut into 1×1 cm^2 pieces and transplanted onto the backs of BALB/c recipient mice. Rejection was defined as complete necrosis of the skin grafts.
The donor ureter was also sutured to the recipient bladder using 10-0 sutures. The native kidneys were removed immediately after grafting. Graft rejection leading to host death was used as the endpoint of rejection for kidney transplants.
Measurement of Serum Creatinine Serum samples were obtained at study endpoint (time of rejection or POD100) after kidney transplantation. Serum creatinine levels were quantitated in 10 μL samples using the Sigma Diagnostics (Sigma, St. Louis, Mo.) procedure, which measures creatinine by a kinetic modification of the Jaffe reaction (Junge et al., 2004). Graft Histology At necropsy, tissue samples were processed for hematoxylin and eosin (H&E) staining (Wang et al, JI 2003) and evaluated for vasculitis, thrombosis, hemorrhage and lymphocyte infiltration; changes were scored as: 0, none; 1, minimal; 2, mild; 3, moderate or 4, marked compared to normal tissues.

SMILES: O=P1(N(CCCl)CCCl)NCCCO1 (stereo not shown) [CyP, cyclophosphamide]
- heart graft survival (time to rejection) [1]: 3.3 ± 0.5 days
- C3 immunoperoxidase staining grade [2]: 3+
- C5 immunoperoxidase staining grade [2]: 3+
- CD4 immunoperoxidase staining grade [2]: 1+
- CD8 immunoperoxidase staining grade [2]: 1+
- IgG immunoperoxidase staining grade [2]: 3+
- IgM immunoperoxidase staining grade [2]: 1+
- Mac-1 immunoperoxidase staining grade [2]: 3+
- circulating anti-donor IgG levels [3]: partially down-regulated
- Mean survival time [4]: 3.3 ± 0.5 days
- Hemo (hemorrhage) median score [5]: 2.0
- Infar (infarction) median score [5]: 4.0
- Lymph (lymphocyte infiltration) median score [5]: 0.0
- Throm (thrombosis) median score [5]: 3.0
- Vasc (vasculitis) median score [5]: 2.0
- nephrotoxicity [6]: significant nephrotoxicity
